Like-named read-outs stand apart in the source and are kept apart here.
How the values were obtained:
Sebaceous cells = test: Inhibition of Sebaceous Cell Proliferation; type: cell-based, human; conditions: read-out: ED50, amount of compound necessary to inhibit the proliferation of the sebaceous cells by 50%
Protocol: Inhibition of Sebaceous Cell Proliferation
Sebaceous cells were isolated from adult human sebaceous glands, derived from facial skin removed during cosmetic surgery. This method is described in an article by Doran et al. in J. Invest. Dermatol. 96:341-348 (1991).
The cells were cultured in Iscove's medium containing 10% fetal calf-serum and 4 μg/ml dexamethasone on a layer of growth-arrested 3T3 mouse fibroblasts.
Cells were plated in medium without the test compound and then given the compound in fresh medium 24-48 hours after the initial plating. The cultures were given fresh medium, containing the test compound, every 48 hours. On the day of harvesting, the cultures were rinsed with 0.03% ethylenediamine tetraacetic acid (EDTA) in phosphate buffered saline (PBS), to remove only the 3T3 fibroblasts. The remaining sebocyte colonies were incubated in 0.05% trypsin/0/03% EDTA to create a single cell suspension of sebocytes. The cells were suspended, mixed vigorously to prepare a single cell suspension, and counted in a hemocytometer.
All compounds were handled in the following manner. Stock solutions were made up as 10-^2 M solutions in degassed 100% ethanol and stored at -20° C. in the dark. Solutions were never used after storage of more than a month. During experimental use the solutions, which had been aliquoted, were thawed once and used by diluting directly into complete medium to the appropriate concentration.
The results are summarized in Table III below as the amount of compound necessary to inhibit the proliferation of the sebaceous cells by 50% (ED50) in μM as compared to a control, vehicle treated only, culture.

[1] = Calcium tolerance test in mice; type: in vivo; conditions: daily subcutaneous, 4 consecutive days, dose giving zero weight gain during 5 day treatment period
From the text: Calcium tolerance test in mice
Profound changes in calcium homeostasis strongly affect the weight development of mice.
Mice (25-30 g body weight) received daily subcutaneous administrations of the compound for 4 consecutive days. Body weight was registered just before and at the end of a […] treatment period. The "highest tolerated dose" (HTD) is the dose which results in zero weight gain during this treatment period.

[2] = test system: γ-Interferon Release in Human T-cells; test: Inhibition of γ-Interferon Release in Human T-cells (ELISA); type: cell-based; conditions: PHA-stimulated human lymphocytes, IFN-γ by ELISA, days 3 and 4, read-out: IC50, concentration leading to 50% of control values (IFN-γ)
Protocol: Inhibition of γ-Interferon Release in Human T-cells
(§1) Mononuclear cells were isolated from venous blood of healthy donors by centrifugation of buffy coat leucocytes atop Ficoll-Paque. […] 100 μl of this cell suspension were seeded into flat-bottom microtiter wells and stimulated with 1 μg/ml of the T-cell specific mitogen phytohemagglutinine (PHA). Immediately after seeding, the test compounds listed below in Table IV were added to yield final concentrations of between 1×10^-11 M-1×10^-6 M. All tests were run in the quadruplicates.
On days 3 and 4, medium was removed from the wells and the content of IFN-γ was analyzed by ELISA. Values are expressed as percent of controls (samples without test compound).

HL-60 cells = test: Induction of HL-60 Cell Differentiation (NBT reduction); type: cell-based; conditions: 3 days, relative to maximal differentiation with 100-1000 nM calcitriol, mean of 3 wells, 4320 min, read-out: ED50, concentration leading to 50% of maximal differentiation
Protocol: Induction of HL-60 Cell Differentiation
The induction of differentiation of HL-60 cells was assayed by measuring their oxidative burst potential via the reduction of nitrobluetetrazolium (NBT).
HL-60 cells (30,000 cells in 90 μl of supplemented RPMI medium) were seeded into flat-bottomed microliter wells. Immediately after seeding, 10 μl of test compounds listed below in Table II diluted in supplemented RPMI medium were added to the wells to yield final concentrations of between 10^-11 and 10^-6 M (starting from stock solutions of 10^-2 M in ethanol, stored at -20° C. and protected from light). After 3 days, medium was removed from the wells with a multichannel pipette and replaced with 100 μl of NBT solution (1 mg/ml in phosphate buffered saline with 200 nM phorbol myristate acetate). Following an additional hour incubation at 37° C. the NBT solution was removed and 100 μl of 10% sodium dodecyl sulfate in 0.01N HCl was added. The amount of the reduced NBT was quantified photometrically at 540 nm using an automated plate reader. The mean of 3 wells was calculated. […] Values were expressed as percent of maximal differentiation achieved with 100-1000 nM calcitriol in the same experiment.

Human T-cell = test: Inhibition of Human T-cell Proliferation (3H-thymidine); type: cell-based; conditions: PHA-stimulated human lymphocytes, 3H-thimidine after 3 and 4 days, read-out: IC50, concentration leading to 50% of control values (T-cell proliferation)
Protocol: Inhibition of Human T-cell Proliferation
as §1, with “[…]” for “μl”, “[…]” for “μg/ml”, “PHA.” for “the T-cell specific mitogen phytohemagglutinine (PHA).”, “V” for “IV”
After 3 and 4 days, ^3 H-thymidine (5 Ci/mmol) was added to wells at a concentration of […]. Cells were pulse-labeled for the last 6 hours of the growth period. Cells were then harvested on to a 96 well filter plate using a cell harvester. After drying at 40° C. under vacuum for 20-30 minutes, 20 μl of scintillor were added and the radioactivity bound to the filters was counted. Values are expressed as percent controls (samples without test compounds).

HaCaT cell line = test: Inhibition of Keratinocyte Proliferation (3H-thymidine uptake, HaCaT cells); type: cell-based; conditions: Homo sapiens, 3H-thymidine incorporation, 6 days, read-out: IC50, concentration leading to 50% of control values

Compound	IC50 (Sebaceous cells; adult human facial sebaceous cells, vs vehicle treated control, listed as 1α,25-Dihydroxy-16,22S,23-triene-cholecalciferol)	HTD, highest tolerated dose [1]	IC50 [2]	EC50 (HL-60 cells)	IC50 (Human T-cell)	IC50 (HaCaT cell line)	IC50 (Sebaceous cells; Homo sapiens)	IC50 ([2]; T-cell)	IC50 (Human T-cell; T-cell)	IC50 (Sebaceous cells; adult human facial sebaceous cells, vs vehicle treated control, listed as 1α,25-Dihydroxy-16,22R,23-triene-cholecalciferol)
C=C1/C(=C\C=C2/CCC[C@]3(C)C([C@H](C)C=C=CC(C)(C)O)=CC[C@@H]23)C[C@@H](O)C[C@@H]1O [1,25-Dihydroxy-16,22S,23-triene-cholecalciferol] [listing 1 of 2 here]	10 nM	0.05 mg/kg	3 nM	4.8 nM	6 nM					
C=C1/C(=C\C=C2/CCC[C@]3(C)[C@@H]([C@H](C)CCCC(C)(C)O)CC[C@@H]23)C[C@@H](O)C[C@@H]1O [1,25-Dihydroxy-cholecalciferol, reference compound]						55 nM	50 nM	0.8 nM	10 nM	
C=C1/C(=C\C=C2/CCC[C@]3(C)C([C@H](C)C=C=CC(C)(C)O)=CC[C@@H]23)C[C@@H](O)C[C@@H]1O [1,25-Dihydroxy-16,22R,23-triene-cholecalciferol]		0.0025 mg/kg	0.05 nM	0.22 nM	0.55 nM					1 nM
C=C1/C(=C\C=C2/CCC[C@]3(C)C([C@H](C)C=C=CC(C)(C)O)=CC[C@@H]23)C[C@@H](O)C[C@@H]1O [1,25-Dihydroxy-16,22S,23-triene-cholecalciferol] [listing 2 of 2 here]						40 nM				

From patent US5840718A, “22-epimeric-1,25-dihydroxy-16,22,23-triene-cholecalciferol” (Hoffmann-La Roche Inc., priority 1997, dated 1998)
